Like-named read-outs stand apart in the source and are kept apart here.
What was measured:
[1] = target: T1, AChE from human erythrocytes (Homo sapiens, UniProt P22303); test: Acetylcholinesterase inhibition assay (Ellman method); assay type: biochemical
T1 construct: AChE from human erythrocytes; from tissue; host or cells: human erythrocytes
Protocol: The inhibitory activities of the synthesized compounds were analyzed spectrophotometrically using acetylthiocholine iodide as the substrate by following the method of Ellman et al.. In general, the reaction mixture comprised 180 µL of 50 mM of Tris HCl buffer (pH 8.0) with 0.1 M of sodium chloride and 0.02 M of magnesium chloride, to which 20 µL of enzyme (AChE, EC 3.1.1.7, AChE from human erythrocytes) solution was added (50 U in each well). The synthesized compounds (10 µL at the concentration being tested for their impact on growth) were added to the reaction mixture, and the mixtures were pre-incubated for 30 min at 4 °C. Then, 5,5′-dithiobis(2-nitrobenzoic acid) (0.3 mM, 20 µL) and acetylthiocholine iodide (1.8 mM, 20 µL) were added to the assay solution, and the mixtures were incubated at 37 °C for 10 min. After the incubation period, the absorbance of each well was measured at 412 nm. For the non-enzymatic reaction, the assays were carried out with a blank containing all the components except AChE. The assay measurements were collected at […] using a microplate reader (OPTI Max, Tunable, Molecular Devices, Sunnyvale, CA, USA). IC50 values were calculated using GraphPad Prism 5.0 through non-linear regression. Each experiment was performed in triplicate.
The percentage of inhibition of […] was calculated: inhibition (%) = [(Blank−Sample)/Blank] × 100.

[2] = DPPH free radical scavenging assay; conditions: tested at 100 µg/mL; compared with vitamin C
Protocol: The synthesized compounds were further evaluated for their 2,2-diphenyl-1-picrylhydrazyl (DPPH) radical scavenging capacity. To evaluate their DPPH inhibition abilities, a radical scavenging assay was performed. The assay mixtures contained 20 µL of increasing concentrations of the test compounds and 100 µL of DPPH (150 µM), and the total volume of each well was brought up to 200 µL with methanol. Then, the mixture was incubated for 30 min at room temperature. For comparison and assay validity, ascorbic acid (vitamin C) was used as a positive control. The absorbance was recorded at 517 nm using a microplate reader (OPTI Max, Tunable). The results were calculated as percent inhibition. All of the concentrations were evaluated in triplicate.

[3] = target: T1, AChE from human erythrocytes; test: Kinetic study of AChE inhibition (Lineweaver–Burk plots); assay type: biochemical; conditions: for Vmax: substrate acetylthiocholine iodide
Protocol: To determine the inhibition mechanism, a kinetic study was carried out. Compound 3b was selected from the synthesized compounds for kinetic analysis to determine its inhibition potential. The identification of the inhibition mode of compound 3b began by using a series of concentrations of acetylthiocholine iodide (0.00 µM, 0.009 µM, 0.018 µM, and 0.036 µM) with various concentrations of 3b. […] The highest reaction rates were calculated from the initial linear portion of the absorbance plot, which represented the five minutes following the addition of the enzyme, and absorbance data were collected at 30-second intervals. The type of enzyme inhibition was determined from the Lineweaver–Burk plots of the inverse of velocity (1/V) versus the inverse of substrate concentration (1/[S] mM^−1).
The efficiency of 3b in blocking the free enzyme and enzyme–substrate complex was investigated in terms of its enzyme inhibition (EI) and enzyme–substrate inhibition (ESI) constants. […] The plots of the effects of complex 3b were linear and appeared in the second quadrant.

[4] = mean ± SEM, triplicate, substrate acetylthiocholine iodide, read-out: Acetylcholine Esterase (from Human Erythrocytes) IC50 ± SEM

T1 sequence (P22303 other isoform, or with tags, fused parts or gaps): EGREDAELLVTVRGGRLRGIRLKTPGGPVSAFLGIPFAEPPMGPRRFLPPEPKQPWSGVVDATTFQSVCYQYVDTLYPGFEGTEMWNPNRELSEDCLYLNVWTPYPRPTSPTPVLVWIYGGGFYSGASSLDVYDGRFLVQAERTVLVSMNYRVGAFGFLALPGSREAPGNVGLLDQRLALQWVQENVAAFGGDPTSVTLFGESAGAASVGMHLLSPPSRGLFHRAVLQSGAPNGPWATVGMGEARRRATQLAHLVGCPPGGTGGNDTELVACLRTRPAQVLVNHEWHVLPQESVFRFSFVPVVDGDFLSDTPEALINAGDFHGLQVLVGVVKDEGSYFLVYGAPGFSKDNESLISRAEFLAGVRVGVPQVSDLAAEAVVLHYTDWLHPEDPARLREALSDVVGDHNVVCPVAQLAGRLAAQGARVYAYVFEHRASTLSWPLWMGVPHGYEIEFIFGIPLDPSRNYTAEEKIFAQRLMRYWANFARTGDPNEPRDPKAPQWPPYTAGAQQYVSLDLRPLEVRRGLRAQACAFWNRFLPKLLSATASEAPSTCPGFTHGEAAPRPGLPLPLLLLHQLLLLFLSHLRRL

Compound	IC50 [1, 4] [nM]	also measured
Nc1nnc(COCCN2CCN(C(c3ccccc3)c3ccc(Cl)cc3)CC2)s1 (stereo not shown) [Compound 3f, 5-((2-(4-((4-chlorophenyl)(phenyl)methyl)piperazin-1-yl)ethoxy)methyl)-1,3,4-thiadiazol-2-amine]	17300 ± 863	–
COc1ccc2cc([C@H](C)c3nnc(N)s3)ccc2c1 [Compound 3e, (S)-5-(1-(6-methoxynaphthalen-2-yl)ethyl)-1,3,4-thiadiazol-2-amine]	3810 ± 190	–
CC(C)Cc1ccc(C(C)c2nnc(N)s2)cc1 (stereo not shown) [Compound 3d, 5-(1-(4-isobutylphenyl)ethyl)-1,3,4-thiadiazol-2-amine]	2240 ± 112	–
COc1ccc(C(=O)N2CCN(c3cc4c(cc3F)c(=O)c(-c3nnc(N)s3)cn4C3CC3)CC2)cc1 [Compound 3h, 3-(5-amino-1,3,4-thiadiazol-2-yl)-1-cyclopropyl-6-fluoro-7-(4-(4-methoxybenzoyl)piperazin-1-yl)quinolin-4(1H)-one]	1710 ± 86.5	–
C[C@@H]1COc2c(N3CCN(C)CC3)c(F)cc3c(=O)c(-c4nnc(N)s4)cn1c23 [Compound 3c, (R)-6-(5-amino-1,3,4-thiadiazol-2-yl)-9-fluoro-3-methyl-10-(4-methylpiperazin-1-yl)-2H-[1,4]oxazino[2,3,4-ij]quinolin-7(3H)-one]	576.3 ± 3.6	–
Nc1nnc(-c2cn(C3CC3)c3cc(N4CCNCC4)c(F)cc3c2=O)s1 [Compound 3a, 3-(5-amino-1,3,4-thiadiazol-2-yl)-1-cyclopropyl-6-fluoro-7-(piperazin-1-yl)quinolin-4(1H)-one]	–	IC50 [1]: 126 ± 3.6 nM; Free radical scavenging potency (DPPH) [2]: excellent radical scavenging potency
Nc1nnc(-c2cn(C3CC3)c3cc(N4CCN(C(=O)c5ccc(Cl)cc5Cl)CC4)c(F)cc3c2=O)s1 [Compound 3i, 3-(5-amino-1,3,4-thiadiazol-2-yl)-1-cyclopropyl-7-(4-(2,4-dichlorobenzoyl)piperazin-1-yl)-6-fluoroquinolin-4(1H)-one]	29200 ± 1460	–
C[C@@H]1COc2c(N3CCNCC3)c(F)cc3c(=O)c(-c4nnc(N)s4)cn1c23 [Compound 3b, (R)-6-(5-amino-1,3,4-thiadiazol-2-yl)-9-fluoro-3-methyl-10-(piperazin-1-yl)-2H-[1,4]oxazino[2,3,4-ij]quinolin-7(3H)-one]	18.1 ± 0.9	Vmax ([3]; 3b concentration 0.009 µM): 0.000467 ΔA/Sec; Vmax ([3]; 3b concentration 0.018 µM): 0.000343 ΔA/Sec; Vmax ([3]; 3b concentration 0.036 µM): 0.000183 ΔA/Sec; Mode of inhibition of AChE ([3]; Lineweaver–Burk analysis): mixed mode of inhibition; Ki ([3]; from plot of slope versus inhibitor concentration, read-out: Ki (EI dissociation constant)): 3.1 nM; Free radical scavenging potency (DPPH) [2]: excellent radical scavenging potency
Nc1nnc(-c2cn(C3CC3)c3cc(N4CCN(C(=O)c5cccc([N+](=O)[O-])c5)CC4)c(F)cc3c2=O)s1 [Compound 3g, 3-(5-amino-1,3,4-thiadiazol-2-yl)-1-cyclopropyl-6-fluoro-7-(4-(3-nitrobenzoyl)piperazin-1-yl)qui nolin-4(1H)-one]	1180 ± 59.1	–
